Tested on: CSF-1
Assay: Quantification of CSF-1 secreted by NS2T2A1 cells transfected with oligonucleotides (ELISA)
Format: cell-based, human
Details: 250 nM oligonucleotide with 2.4 μg/ml cytofectin GS-3815, ELISA of culture medium 24 h after beginning of transfection, relative to non-transfected cell line
Procedure: Line NS2T2A1 is a line of cells from the human breast (Ma et al., Int. J. Cancer, 1998, 78: 112-119) obtained by mammoplasty, transformed by SV40. This line secretes CSF-1 linearly as a function of the cell growth.
The cells were cultivated in medium M5 (Gibco, France) complemented with 5% of -horse serum as described by Ma et al. (Int. J. Cancer, 1998, 78:112-119). Seeding was done in 6 well plates at a concentration, of 5×10^5 cells/ml/well. Transfection by oligonucleotides was done 24 h later, when the cells were in the exponential growth phase and they had reached 60% to 80% of confluence.
Transfection by oligonucleotides was done using cytofectin GS-3815 (Glen research, Sterling. Va.). Oligonucleotides and cytofectin were diluted separately in polystyrene tubes with the opti-MEM medium (Gibco, France), and the cytofectin was mixed with an equal volume of diluted oligonucleotides. The mix was left for 15 minutes at ambient temperature to enable the formation of oligonucleotide/cytofectin complexes. Finally, the M5 medium was added to the solution to obtain final concentrations equal to 2.4 μg/ml of cytofectin and 250 nM of oligonucleotides. All transfections were done in the M5 medium and in a final volume of 1 ml. Oligonucleotide/cytofectin complexes were left in contact with cells for 24 h. All steps described above were done under sterile conditions.
All experiments were done in triplicate for each concentration of oligonucleotides.
The quantity of CSF-1 secreted in the culture medium of NS2T2A1 cells was-measured by an ELISA test, 24 h after the beginning of the transfection, referring strictly to the protocol described by the supplier (R&D systems, Europe Ltd, UK). The results are expressed as a percentage of CSF-1 expressed by the transfected cells with respect to the CSF-1 expressed by a non-transfected cell line.

Row | Substance | Percentage of CSF-1 expressed [%]
1 | SEQ ID No. 4: phosphorothioate oligonucleotide with pdU/pdC base substitutions, hybridising region 341-358 of SEQ ID No. 1 (CSF-1) (ACACGAUGGAAUUCUUCC; listed as RNA, chemistry not fully specified) | 50
2 | SEQ ID No. 5: phosphorothioate oligonucleotide with pdU/pdC base substitutions, hybridising region 409-426 of SEQ ID No. 1 (CSF-1) (UUGUGGCGGUUAGGGUAG; listed as RNA, chemistry not fully specified) | 90
3 | SEQ ID No. 3: phosphorothioate oligonucleotide with pdU/pdC base substitutions, hybridising region 284-301 of SEQ ID No. 1 (CSF-1) (UCUGGAGCAGGUUAAU; listed as RNA, chemistry not fully specified) | 39
4 | SEQ ID No. 2: phosphorothioate oligonucleotide with pdU/pdC base substitutions, hybridising region 135-152 of SEQ ID No. 1 (CSF-1) (GGGAGGGUGCUGUACCGA; listed as RNA, chemistry not fully specified) | 70
